Among the data in ChEMBL document CHEMBL3991601, “The target landscape of clinical kinase drugs” (Science, 2017) are Kd values, retold here.

The source made the active and inactive calls. A value given as a limit tells only on which side of the number the result lay.

In experiment [1] the target is RAC-gamma serine/threonine-protein kinase (Homo sapiens, UniProt Q9Y243).
For experiment [2], the target named is T1, Rab-like protein 3 (Homo sapiens, UniProt Q5HYI8).
T1 sequence (Q5HYI8 whole entry): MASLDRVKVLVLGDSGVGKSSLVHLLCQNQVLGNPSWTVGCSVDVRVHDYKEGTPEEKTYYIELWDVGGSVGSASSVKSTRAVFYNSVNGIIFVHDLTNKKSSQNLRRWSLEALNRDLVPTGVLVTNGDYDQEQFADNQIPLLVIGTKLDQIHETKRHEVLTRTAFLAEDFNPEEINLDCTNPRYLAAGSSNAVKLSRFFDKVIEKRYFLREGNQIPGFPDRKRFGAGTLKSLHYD

Experiment [3] deals with U5 small nuclear ribonucleoprotein 200 kDa helicase (Homo sapiens, UniProt O75643).
Experiment [4] deals with T2, Serine/threonine-protein kinase Nek3 (Homo sapiens, UniProt P51956).
T2 sequence (P51956 whole entry): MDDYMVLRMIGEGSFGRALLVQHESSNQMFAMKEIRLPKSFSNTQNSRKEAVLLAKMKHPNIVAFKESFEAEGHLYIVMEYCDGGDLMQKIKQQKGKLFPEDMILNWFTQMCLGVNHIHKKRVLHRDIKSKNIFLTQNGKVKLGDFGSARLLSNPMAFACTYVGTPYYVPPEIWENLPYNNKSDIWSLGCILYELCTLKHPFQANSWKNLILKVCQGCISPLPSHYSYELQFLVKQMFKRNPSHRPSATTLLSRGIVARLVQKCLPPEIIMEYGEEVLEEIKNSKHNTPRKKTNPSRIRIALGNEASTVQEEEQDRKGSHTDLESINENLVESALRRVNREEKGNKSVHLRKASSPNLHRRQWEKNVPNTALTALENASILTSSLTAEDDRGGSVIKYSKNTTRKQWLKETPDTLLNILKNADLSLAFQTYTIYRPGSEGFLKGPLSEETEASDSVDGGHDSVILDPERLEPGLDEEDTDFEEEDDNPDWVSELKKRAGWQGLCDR

The target in experiment [5] is Mitogen-activated protein kinase kinase kinase kinase 1 (Homo sapiens, UniProt Q92918).
In experiment [6] the target is T3, Serine/threonine-protein kinase NLK (Homo sapiens, UniProt Q9UBE8).
T3 sequence (Q9UBE8 whole entry): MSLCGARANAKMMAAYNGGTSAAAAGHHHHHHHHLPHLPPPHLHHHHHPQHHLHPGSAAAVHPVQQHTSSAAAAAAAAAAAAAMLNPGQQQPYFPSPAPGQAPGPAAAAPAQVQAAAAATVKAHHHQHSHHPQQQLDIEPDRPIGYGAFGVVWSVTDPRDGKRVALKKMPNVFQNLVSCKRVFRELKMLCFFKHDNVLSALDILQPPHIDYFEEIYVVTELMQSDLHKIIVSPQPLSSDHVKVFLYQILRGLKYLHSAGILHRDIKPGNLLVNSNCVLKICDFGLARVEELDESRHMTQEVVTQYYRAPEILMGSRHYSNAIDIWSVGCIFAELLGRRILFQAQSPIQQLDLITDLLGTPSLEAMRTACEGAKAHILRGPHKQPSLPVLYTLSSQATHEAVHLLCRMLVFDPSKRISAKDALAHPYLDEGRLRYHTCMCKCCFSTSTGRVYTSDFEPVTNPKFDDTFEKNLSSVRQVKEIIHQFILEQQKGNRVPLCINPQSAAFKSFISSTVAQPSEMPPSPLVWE

For experiment [7], the target named is T4, Breakpoint cluster region protein (Homo sapiens, UniProt P11274).
T4 sequence (P11274 whole entry): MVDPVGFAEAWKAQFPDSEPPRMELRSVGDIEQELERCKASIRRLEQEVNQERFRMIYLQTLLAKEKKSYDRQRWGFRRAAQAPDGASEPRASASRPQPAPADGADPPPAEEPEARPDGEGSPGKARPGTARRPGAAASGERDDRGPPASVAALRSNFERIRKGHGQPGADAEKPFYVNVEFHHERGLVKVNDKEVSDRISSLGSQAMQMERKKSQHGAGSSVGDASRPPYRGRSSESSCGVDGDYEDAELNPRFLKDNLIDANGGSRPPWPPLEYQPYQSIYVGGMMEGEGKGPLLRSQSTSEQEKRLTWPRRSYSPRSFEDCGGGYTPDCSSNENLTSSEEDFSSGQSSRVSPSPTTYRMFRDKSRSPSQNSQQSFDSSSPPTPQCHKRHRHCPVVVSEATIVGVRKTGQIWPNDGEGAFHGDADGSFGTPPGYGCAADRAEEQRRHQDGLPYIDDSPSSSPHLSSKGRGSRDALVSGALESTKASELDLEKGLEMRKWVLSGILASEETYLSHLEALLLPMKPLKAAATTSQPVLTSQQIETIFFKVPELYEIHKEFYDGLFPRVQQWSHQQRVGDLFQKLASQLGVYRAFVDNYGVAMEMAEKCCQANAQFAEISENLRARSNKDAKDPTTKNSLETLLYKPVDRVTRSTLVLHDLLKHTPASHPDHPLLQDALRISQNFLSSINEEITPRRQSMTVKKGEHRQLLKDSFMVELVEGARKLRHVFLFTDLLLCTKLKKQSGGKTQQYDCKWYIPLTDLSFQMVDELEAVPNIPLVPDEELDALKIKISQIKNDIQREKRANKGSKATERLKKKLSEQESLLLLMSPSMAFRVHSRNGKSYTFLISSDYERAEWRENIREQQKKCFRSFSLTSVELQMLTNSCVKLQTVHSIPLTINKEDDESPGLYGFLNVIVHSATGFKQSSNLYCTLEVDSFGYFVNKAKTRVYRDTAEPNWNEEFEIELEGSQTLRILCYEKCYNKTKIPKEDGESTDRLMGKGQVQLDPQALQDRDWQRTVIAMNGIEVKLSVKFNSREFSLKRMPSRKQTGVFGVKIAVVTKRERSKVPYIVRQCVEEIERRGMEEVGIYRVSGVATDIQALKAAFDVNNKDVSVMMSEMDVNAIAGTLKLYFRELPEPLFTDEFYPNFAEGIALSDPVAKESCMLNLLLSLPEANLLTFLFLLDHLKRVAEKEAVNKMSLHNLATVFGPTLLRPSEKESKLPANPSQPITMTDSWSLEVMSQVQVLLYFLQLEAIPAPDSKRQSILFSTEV

Experiment [8] addresses Insulin-like growth factor 1 receptor (Homo sapiens, UniProt P08069).
Also: in the data inactive means no Kd found up to 30 µM.

RAC-gamma serine/threonine-protein kinase, sequence (Q9Y243 whole entry): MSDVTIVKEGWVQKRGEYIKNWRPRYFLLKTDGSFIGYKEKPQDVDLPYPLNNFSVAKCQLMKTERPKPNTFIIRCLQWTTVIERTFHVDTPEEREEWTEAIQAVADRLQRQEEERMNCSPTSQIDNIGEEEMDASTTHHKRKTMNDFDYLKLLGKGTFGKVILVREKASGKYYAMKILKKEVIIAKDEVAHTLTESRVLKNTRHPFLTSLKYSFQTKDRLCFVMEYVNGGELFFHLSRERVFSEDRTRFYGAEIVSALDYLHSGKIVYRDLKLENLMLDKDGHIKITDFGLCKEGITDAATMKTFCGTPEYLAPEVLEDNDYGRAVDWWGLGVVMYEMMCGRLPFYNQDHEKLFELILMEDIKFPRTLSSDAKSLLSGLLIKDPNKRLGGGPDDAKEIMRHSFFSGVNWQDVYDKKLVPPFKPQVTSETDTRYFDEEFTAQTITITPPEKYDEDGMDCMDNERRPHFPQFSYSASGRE
U5 small nuclear ribonucleoprotein 200 kDa helicase, sequence (O75643 whole entry): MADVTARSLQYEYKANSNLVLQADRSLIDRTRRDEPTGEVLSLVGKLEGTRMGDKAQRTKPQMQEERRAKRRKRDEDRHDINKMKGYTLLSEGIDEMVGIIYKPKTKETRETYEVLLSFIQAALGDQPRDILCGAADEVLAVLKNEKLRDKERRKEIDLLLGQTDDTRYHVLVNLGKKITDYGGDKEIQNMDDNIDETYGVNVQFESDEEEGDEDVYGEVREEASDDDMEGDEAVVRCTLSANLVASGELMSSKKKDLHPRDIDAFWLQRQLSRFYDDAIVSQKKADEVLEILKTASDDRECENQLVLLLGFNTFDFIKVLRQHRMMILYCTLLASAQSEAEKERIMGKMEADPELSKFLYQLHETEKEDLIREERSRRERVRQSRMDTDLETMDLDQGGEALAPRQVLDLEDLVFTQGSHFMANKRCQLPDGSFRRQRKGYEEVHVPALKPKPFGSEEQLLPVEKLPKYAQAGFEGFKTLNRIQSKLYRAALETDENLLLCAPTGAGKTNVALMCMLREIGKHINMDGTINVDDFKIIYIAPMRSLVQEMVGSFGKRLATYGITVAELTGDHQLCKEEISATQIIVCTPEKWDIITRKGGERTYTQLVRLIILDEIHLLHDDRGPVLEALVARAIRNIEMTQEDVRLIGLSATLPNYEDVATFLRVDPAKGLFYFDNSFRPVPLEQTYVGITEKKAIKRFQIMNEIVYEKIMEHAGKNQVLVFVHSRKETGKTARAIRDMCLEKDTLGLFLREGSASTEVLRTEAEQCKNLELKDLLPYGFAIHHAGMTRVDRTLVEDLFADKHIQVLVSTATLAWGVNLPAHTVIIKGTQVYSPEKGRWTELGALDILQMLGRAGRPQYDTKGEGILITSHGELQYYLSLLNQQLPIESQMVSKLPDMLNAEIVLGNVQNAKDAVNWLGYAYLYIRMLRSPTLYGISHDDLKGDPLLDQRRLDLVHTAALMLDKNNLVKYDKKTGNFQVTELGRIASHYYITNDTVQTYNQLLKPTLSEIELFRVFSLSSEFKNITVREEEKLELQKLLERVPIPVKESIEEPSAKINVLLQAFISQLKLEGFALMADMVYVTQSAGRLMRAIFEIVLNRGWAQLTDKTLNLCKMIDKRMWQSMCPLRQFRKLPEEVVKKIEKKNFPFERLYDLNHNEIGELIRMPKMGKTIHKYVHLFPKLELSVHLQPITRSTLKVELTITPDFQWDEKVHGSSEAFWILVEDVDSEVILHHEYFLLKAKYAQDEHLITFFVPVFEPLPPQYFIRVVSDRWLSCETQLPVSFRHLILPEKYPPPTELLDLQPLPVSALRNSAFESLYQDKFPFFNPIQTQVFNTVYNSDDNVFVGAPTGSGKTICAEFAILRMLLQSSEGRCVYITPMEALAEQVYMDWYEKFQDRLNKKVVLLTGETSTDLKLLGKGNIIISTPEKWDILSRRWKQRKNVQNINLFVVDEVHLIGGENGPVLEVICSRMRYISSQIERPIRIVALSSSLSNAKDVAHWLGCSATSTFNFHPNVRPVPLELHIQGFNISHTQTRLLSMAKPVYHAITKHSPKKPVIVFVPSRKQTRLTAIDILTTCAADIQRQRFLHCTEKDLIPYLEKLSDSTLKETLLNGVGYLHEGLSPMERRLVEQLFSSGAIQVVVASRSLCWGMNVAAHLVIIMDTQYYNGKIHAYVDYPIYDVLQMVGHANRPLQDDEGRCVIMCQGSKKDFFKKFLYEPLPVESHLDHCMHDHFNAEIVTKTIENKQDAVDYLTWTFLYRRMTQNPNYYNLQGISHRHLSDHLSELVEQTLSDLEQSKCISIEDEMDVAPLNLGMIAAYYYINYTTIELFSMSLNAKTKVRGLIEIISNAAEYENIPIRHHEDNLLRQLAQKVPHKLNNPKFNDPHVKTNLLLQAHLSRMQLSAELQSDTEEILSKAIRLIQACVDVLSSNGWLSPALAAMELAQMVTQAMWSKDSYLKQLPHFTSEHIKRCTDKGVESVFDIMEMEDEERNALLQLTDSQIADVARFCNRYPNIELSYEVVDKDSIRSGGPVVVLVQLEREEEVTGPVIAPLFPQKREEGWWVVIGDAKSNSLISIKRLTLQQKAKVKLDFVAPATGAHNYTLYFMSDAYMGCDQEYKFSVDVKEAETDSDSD
Mitogen-activated protein kinase kinase kinase kinase 1, sequence (Q92918 whole entry): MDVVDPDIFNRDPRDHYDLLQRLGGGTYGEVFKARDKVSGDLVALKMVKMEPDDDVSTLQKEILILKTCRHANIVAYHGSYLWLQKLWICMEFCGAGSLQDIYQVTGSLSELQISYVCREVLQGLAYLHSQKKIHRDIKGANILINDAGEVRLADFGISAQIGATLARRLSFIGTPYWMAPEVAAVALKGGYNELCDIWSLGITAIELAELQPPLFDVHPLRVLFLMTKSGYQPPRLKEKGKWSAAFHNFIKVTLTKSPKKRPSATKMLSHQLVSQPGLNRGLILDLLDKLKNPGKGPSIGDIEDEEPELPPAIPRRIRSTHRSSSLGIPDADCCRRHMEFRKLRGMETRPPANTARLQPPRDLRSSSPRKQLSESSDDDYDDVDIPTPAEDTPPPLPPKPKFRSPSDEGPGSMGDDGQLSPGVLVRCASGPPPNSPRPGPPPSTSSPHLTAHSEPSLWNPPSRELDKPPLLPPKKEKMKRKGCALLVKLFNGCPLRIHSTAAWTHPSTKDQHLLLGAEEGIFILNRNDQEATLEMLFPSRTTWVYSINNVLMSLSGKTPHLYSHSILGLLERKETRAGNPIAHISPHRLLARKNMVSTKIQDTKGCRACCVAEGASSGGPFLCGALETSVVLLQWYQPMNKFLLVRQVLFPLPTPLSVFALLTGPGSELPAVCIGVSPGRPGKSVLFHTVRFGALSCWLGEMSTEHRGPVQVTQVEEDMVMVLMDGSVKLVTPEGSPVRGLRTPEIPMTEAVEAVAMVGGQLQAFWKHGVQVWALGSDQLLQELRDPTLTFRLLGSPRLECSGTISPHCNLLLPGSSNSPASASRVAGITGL
Insulin-like growth factor 1 receptor, sequence (P08069 31-736 limits assumed): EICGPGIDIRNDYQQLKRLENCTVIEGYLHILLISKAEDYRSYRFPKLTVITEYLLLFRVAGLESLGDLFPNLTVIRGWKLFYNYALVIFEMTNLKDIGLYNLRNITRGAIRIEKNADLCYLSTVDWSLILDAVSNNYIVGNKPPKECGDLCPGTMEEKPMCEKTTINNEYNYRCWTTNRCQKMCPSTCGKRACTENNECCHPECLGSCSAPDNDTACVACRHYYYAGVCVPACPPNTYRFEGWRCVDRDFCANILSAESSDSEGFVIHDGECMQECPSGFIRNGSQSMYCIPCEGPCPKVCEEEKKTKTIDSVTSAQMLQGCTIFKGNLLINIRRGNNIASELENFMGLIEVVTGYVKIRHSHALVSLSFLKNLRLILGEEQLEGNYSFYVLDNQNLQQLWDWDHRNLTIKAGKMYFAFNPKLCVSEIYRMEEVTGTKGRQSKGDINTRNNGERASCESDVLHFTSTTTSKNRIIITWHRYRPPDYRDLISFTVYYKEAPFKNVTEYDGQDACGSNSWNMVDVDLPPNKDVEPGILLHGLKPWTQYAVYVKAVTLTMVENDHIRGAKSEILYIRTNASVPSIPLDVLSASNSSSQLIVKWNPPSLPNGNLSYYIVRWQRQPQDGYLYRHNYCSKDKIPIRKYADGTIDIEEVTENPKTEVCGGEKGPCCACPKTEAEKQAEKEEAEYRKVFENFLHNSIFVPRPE
Insulin-like growth factor 1 receptor, sequence (P08069 741-1367 limits assumed): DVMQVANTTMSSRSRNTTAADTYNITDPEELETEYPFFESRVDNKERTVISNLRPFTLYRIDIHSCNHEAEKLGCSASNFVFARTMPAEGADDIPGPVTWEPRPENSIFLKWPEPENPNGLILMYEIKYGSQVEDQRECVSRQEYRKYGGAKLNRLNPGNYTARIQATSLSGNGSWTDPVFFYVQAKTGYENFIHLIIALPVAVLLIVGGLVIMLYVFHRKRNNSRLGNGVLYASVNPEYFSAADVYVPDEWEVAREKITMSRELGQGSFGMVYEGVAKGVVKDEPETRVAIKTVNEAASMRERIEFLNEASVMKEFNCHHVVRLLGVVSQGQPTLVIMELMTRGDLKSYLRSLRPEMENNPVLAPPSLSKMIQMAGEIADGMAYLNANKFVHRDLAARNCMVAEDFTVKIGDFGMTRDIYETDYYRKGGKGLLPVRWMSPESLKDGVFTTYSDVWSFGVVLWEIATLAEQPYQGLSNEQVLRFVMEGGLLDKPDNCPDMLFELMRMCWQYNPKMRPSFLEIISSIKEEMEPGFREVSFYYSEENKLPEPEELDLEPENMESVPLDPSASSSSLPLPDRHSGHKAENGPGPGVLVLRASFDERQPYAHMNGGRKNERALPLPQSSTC

As to `Cn1c(=O)n(-c2ccc(C(C)(C)C#N)cc2)c2c3cc(-c4cnc5ccccc5c4)ccc3ncc21` [DACTOLISIB], the Kd in experiment [1], in experiment [2], in experiment [3], in experiment [4], in experiment [5] and in experiment [6] was > 30 µM (inactive) throughout. Besides, the Kd (usually the equilibrium constant for the complex coming apart) in experiment [7] was > 30 µM (inactive).
For the compound `C[C@@]1(C(=O)Nc2ccc(F)nc2)CCCN1c1nc(Nc2cc(C3CC3)n[nH]2)c2cccn2n1` [BMS-754807], the Kd in experiment [1], in experiment [2], in experiment [3] and in experiment [7] was > 30 µM (inactive) throughout.
In the case of `O=C(Nc1ccc(OC(F)(F)F)cc1)c1sccc1NCc1ccnc2ccccc12` [OSI-930], the Kd in experiment [1], in experiment [3], in experiment [4], in experiment [5], in experiment [6] and in experiment [7] was > 30 µM (inactive) in each case. For the same compound, the Kd in experiment [8] is > 30 µM (inactive).
As for `CN(c1ncccc1CNc1nc(Nc2ccc3c(c2)CC(=O)N3)ncc1C(F)(F)F)S(C)(=O)=O` [PF-00562271], the Kd was > 30 µM (inactive) in experiment [2]; > 30 µM (inactive) in experiment [3]; > 30 µM (inactive) in experiment [4]; 3.98 µM (active) in experiment [5]; > 30 µM (inactive) in experiment [6]; > 30 µM (inactive) in experiment [7].
For the compound `COc1cc2c(Oc3ccc4[nH]c(C)cc4c3F)ncnc2cc1OCCCN1CCCC1` [CEDIRANIB], the Kd was > 30 µM (inactive) in experiment [3] and 2.31 µM (active) in experiment [7].
`Cn1cnc2c(F)c(Nc3ccc(Br)cc3Cl)c(C(=O)NOCCO)cc21` [SELUMETINIB]: the Kd in experiment [2], in experiment [3] and in experiment [7] was > 30 µM (inactive) throughout.
Take `COc1cc2c(N3CCN(C(=O)Nc4ccc(OC(C)C)cc4)CC3)ncnc2cc1OCCCN1CCCCC1` [TANDUTINIB]: the Kd in experiment [2] is > 30 µM (inactive).
For `C=CC(=O)Nc1cc(Nc2nccc(-c3cn(C)c4ccccc34)n2)c(OC)cc1N(C)CCN(C)C` [OSIMERTINIB], the Kd in experiment [1], in experiment [3], in experiment [4], in experiment [5], in experiment [6] and in experiment [7] was > 30 µM (inactive) each time. Moreover, the Kd in experiment [8] was > 30 µM (inactive).
For `CCN(CCCOc1ccc2c(Nc3cc(CC(=O)Nc4cccc(F)c4)n[nH]3)ncnc2c1)CCOP(=O)(O)O` [BARASERTIB], the Kd in experiment [1], in experiment [2], in experiment [3], in experiment [4], in experiment [5] and in experiment [6] was > 30 µM (inactive) in each case. Also, the Kd in experiment [7] is > 30 µM (inactive).
Consider `CC1(C)CNc2cc(NC(=O)c3cccnc3NCc3ccncc3)ccc21` [MOTESANIB], for which the Kd in experiment [2], in experiment [3] and in experiment [7] was > 30 µM (inactive) in each case.
Turning to `Cc1cc(C(=O)Nc2cc(Oc3ccc4nc(NC(=O)C5CC5)cn4n3)ccc2C)n(C)n1` [TAK-593], the Kd in experiment [2] was > 30 µM (inactive); in experiment [3] it was > 30 µM (inactive); in experiment [4], > 30 µM (inactive); in experiment [5], > 30 µM (inactive); in experiment [6], > 30 µM (inactive); in experiment [7] it was 0.035 µM (active). In addition, the Kd in experiment [8] is > 30 µM (inactive).
On to `C=CCn1c(=O)c2cnc(Nc3ccc(N4CCN(C)CC4)cc3)nc2n1-c1cccc(C(C)(C)O)n1` [ADAVOSERTIB], for which the Kd in experiment [1] is > 30 µM (inactive); in experiment [2], > 30 µM (inactive); in experiment [3], > 30 µM (inactive); in experiment [4], 0.837 µM (active); in experiment [5], > 30 µM (inactive); in experiment [6], > 30 µM (inactive). In experiment [7], the Kd is 1.91 µM (active).
On to `NC[C@@](O)(c1ccc(Cl)cc1)c1ccc(-c2cn[nH]c2)cc1` [AT-13148], for which the Kd in experiment [3], in experiment [4], in experiment [5], in experiment [6], in experiment [7] and in experiment [8] was > 30 µM (inactive) in each case.
On to `CN(C)C/C=C/C(=O)Nc1cc2c(Nc3ccc(F)c(Cl)c3)ncnc2cc1O[C@H]1CCOC1` [AFATINIB], for which the Kd in experiment [2], in experiment [3] and in experiment [7] was > 30 µM (inactive) throughout.
For `O=S(=O)(c1cccc2cnccc12)N1CCCNCC1` [FASUDIL], the Kd in experiment [4], in experiment [5], in experiment [6], in experiment [7] and in experiment [8] was > 30 µM (inactive) throughout.
Take `C[C@]1(O)C[C@@H](c2nc(-c3ccc4ccc(-c5ccccc5)nc4c3)c3c(N)nccn32)C1` [LINSITINIB]: the Kd in experiment [2], in experiment [3], in experiment [4], in experiment [5], in experiment [6] and in experiment [7] was > 30 µM (inactive) in each case.
`CC(C)CC(=O)Nc1[nH]nc2c1CN(C(=O)C1CCN(C)CC1)C2(C)C` [PHA-793887]: the Kd in experiment [1], in experiment [3], in experiment [4], in experiment [5], in experiment [7] and in experiment [8] was > 30 µM (inactive) throughout.
